Results reported in ChEMBL document CHEMBL4665745, “Bioactive Lignans from Hypoestes aristata” (J Nat Prod, 2020).
Calls of active or inactive are those of the source. The rule behind the calls is not given here.

Assays:
MDA-MB-231 [1] = assay: Cytotoxicity against human MDA-MB-231 cells assessed as reduction in cell viability at >90 uM after 48 hrs; format: functional, cell-based; conditions: dose microM >90, time 48.0 hrs
MCF7 [2] = assay: Cytotoxicity against human MCF7 cells assessed as reduction in cell viability at <90 uM after 48 hrs; format: functional, cell-based; conditions: dose microM <90, time 48.0 hrs
[3] = target: Human immunodeficiency virus type 1 protease (Human immunodeficiency virus 1) (UniProt Q72874); assay: Inhibition of HIV-1 protease at >100 uM after 1 hr by fluorescence assay; conditions: dose microM >100, time 1.0 hrs
MCF7 [4] = assay: Cytotoxicity against human MCF7 cells assessed as reduction in cell viability after 48 hrs; format: functional, cell-based
MDA-MB-231 [5] = assay: Cytotoxicity against human MDA-MB-231 cells assessed as reduction in cell viability after 48 hrs; format: functional, cell-based
[6] = target: Human immunodeficiency virus type 1 protease (Human immunodeficiency virus 1) (UniProt Q72874); assay: Inhibition of HIV-1 protease at <60 uM after 1 hr by fluorescence assay; conditions: dose microM <60, time 1.0 hrs

Structure (SMILES)	inhibition [3]	inhibition [6]	Activity (MDA-MB-231 [1])	Activity (MCF7 [2])	Activity (MCF7 [4])	Activity (MDA-MB-231 [5])
CC(=O)N[C@H](C(=O)N[C@H](C(=O)N[C@@H](CC(C)C)[C@@H](O)CC(=O)N[C@@H](C)C(=O)N[C@@H](CC(C)C)[C@@H](O)CC(=O)O)C(C)C)C(C)C	–	–	inactive	inactive	–	–
CC(=O)O[C@@H](c1ccc2c(c1)OCO2)[C@H]1COC(O)[C@@H]1[C@@H](OC(C)=O)c1ccc2c(c1)OCO2 (stereo partly specified)	Active	–	inactive	inactive	Active	Active
O=C1OC[C@H](Cc2ccc3c(c2)OCO3)[C@H]1Cc1ccc2c(c1)OCO2	Active	Active	–	–	–	–

Further lines, with some results ahead:

inhibition [3]	inhibition [6]	Structure (SMILES)	Activity (MDA-MB-231 [1])	Activity (MCF7 [2])	Activity (MCF7 [4])	Activity (MDA-MB-231 [5])
Active	–	CC(=O)O[C@H](c1ccc2c(c1)OCO2)[C@H]1COC(=O)[C@@H]1[C@H](O)c1ccc2c(c1)OCO2	inactive	inactive	Active	Active
Active	–	COc1cc([C@H]2OC[C@H]3[C@@H]2CO[C@@H]3c2cc(OC)c(O)c(OC)c2)ccc1O	–	–	–	–
Active	Active	CC(=O)O[C@H](c1ccc2c(c1)OCO2)[C@H]1COC(=O)[C@@H]1[C@H](OC(C)=O)c1ccc2c(c1)OCO2	inactive	inactive	Active	Active
